These results are taken from patent US20220117890A1, “CANNABINOID EMULSIONS” (CORN PRODUCTS DEVELOPMENT, INC., priority 2020, published 2022).

Data set [1] is described as follows: Plasma pharmacokinetics of CBD after single IV or oral administration. It counts as in vivo, male Sprague-Dawley rats. Particulars: male, Sprague-Dawley, IV 2 mg/kg, rat. The text has this: Plasma pharmacokinetics following single intravenous cannabidiol (CBD solid) or oral administration (4 emulsions+1 non-emulsified oil) was investigated in male Sprague-Dawley rats. Rats were used for this study because they are an accepted model for characterization of pharmacokinetics of formulations being developed for humans. Twelve (12) single-catheterized rats (275-300 g, jugular vein catheter) were obtained from Envigo and divided into 6 groups of 2 animals each. Rats were acclimated for 5 days; the temperature was controlled from 68-79° F., the humidity was controlled from 20% to 70% and the light source was fluorescent lamps with a light/dark cycle of 12/12 hours on/off. No concurrent medication was administered during the study, and all rats had access (ad-libitum) to Tekland Rodent Chow 2018 (Envigo) and tap water throughout the live phase. All animals were randomly placed. Post acclimation, all animals received a single IV (tail vein injection) or oral treatment of one of the nanoemulsions, a non-emulsified oil, or a positive control based on Table 7. Group 1 animals received a single IV injection while Groups 2-6 received a single oral administration. The non-emulsified oil is CBD isolate dissolved in MCT oil. WFI=sterile water for injection. Dosing and dose volume are in […] (body weight) and mL/kg (body weight) respectively.
The CBD concentration in blood plasma samples obtained at various collection times (15, 30, 60, 120, 180, 240, 480 minutes and 24 hr) was determined.
The following pharmacokinetic parameters were determined: Bioavailability absolute (Fabs), Bioavailability relative to non-emulsified (Frel), the time at maximum concentration, the maximum concentration, and half-life (T1/2).

Assay in data set [2]: as above
The data set is classed as in vivo, male Sprague-Dawley rats. Particulars: male, Sprague-Dawley, IV 2 mg/kg, rat, read-out: Concentration (CBD in blood plasma).

Take `C=C(C)[C@@H]1CCC(C)=C[C@H]1c1c(O)cc(CCCCC)cc1O` [CBD solid, cannabidiol]: in data set [1], the AUC(0-inf) turned out to be 2010 ng·h/mL and the AUC(0-t) is 1980 ng·h/mL. The Cmax in data set [1] (read-out: Cmax (maximum concentration)) worked out at 1560 ng/mL. Also, the Tmax in data set [1] (read-out: Tmax (time at maximum concentration)) came to 15 min. Moreover, in data set [1] (time 30 min, read-out: Concentration (CBD in blood plasma)), the concentration at 30 min was 481 ng/mL. Besides, the concentration at 60 min in data set [1] (time 60 min, read-out: Concentration (CBD in blood plasma)) was determined as 341 ng/mL. Besides, the concentration at 120 min in data set [1] (time 120 min, read-out: Concentration (CBD in blood plasma)) worked out at 178 ng/mL. Also, in data set [1] (time 180 min, read-out: Concentration (CBD in blood plasma)), the concentration at 180 min stood at 89.2 ng/mL. For the same compound, the concentration at 240 min in data set [1] (time 240 min, read-out: Concentration (CBD in blood plasma)) came out at 44.2 ng/mL. Moreover, the concentration at 480 min in data set [1] (time 480 min, read-out: Concentration (CBD in blood plasma)) turned out to be 10.6 ng/mL. Besides, the concentration at 24 hr in data set [1] (time 24 hr, read-out: Concentration (CBD in blood plasma)) is 5.2 ng/mL. In data set [2], the concentration at 5 min worked out at 1560 ng/mL.

A word on the AUC(0-inf): it is the area under the concentration-time curve extrapolated to infinity. Usually AUC(0-t) stands for exposure summed from dosing to a finite time, without extrapolation to infinity. A low value points to low exposure.
